{"source": "patent US4668677A", "about": "“4-phenylphthalazine derivatives, their preparation and their use as pharmaceuticals” (Mitsubishi Chemical Industries Limited, priority 1984, dated 1987)", "key": {"[1]": {"tested_on": "coronary artery", "experiment": "Activity to increase blood flow volume in coronary artery", "type": "in vivo, dog (mongrel adult dog)", "description": "(§1) The compound of this invention was dissolved in an aqueous solution containing 1% tartaric acid and 1% dimethylacetamide, while papaverine hydrochloride dissolved in 0.9% physiological saline. These test compounds were intravenously given through a residual polyethylene tube within femoral vein.\n(§2) A mongrel adult dog was anesthetized with pentobarbital sodium and then underwent thoracotomy under artificial respiration. After cardiac membrane was removed, the origin of branches in left coronary artery was removed from its peripheral tissues and blood flow volume of coronary artery was measured via the probe for determining blood flow which was attached to said origin. Simultaneously, blood pressure in femoral artery was measured. Preparation and administration of test compounds were carried out in the same manner as in the above item (6)."}, "[2]": {"experiment": "in vivo", "settings": "rat, po, rats"}, "[3]": {"tested_on": "blood platelets", "experiment": "Activity to inhibit the blood platelet adhesion (glass bead method)", "type": "cell-based, rat (male Wistar-ST strain)", "settings": "Rattus norvegicus, read-out: Inhibitory rate of blood platelet adhesion", "description": "As experimental animals, there were used male Wistar-ST strain rats of an average body weight of 250 g.\nBlood samples were obained from carotid arteries by means of a cannule and immediately admixed with sodium citrate at a volume ratio of 1/10. The mixture was centrifuged at 200×g over 15 minutes to collect the supernatant (platelet-rich plasma: PRP). The PRP was then centrifuged at 2000×g over 15 minutes and the supernatant was removed to give blood platelet pellet.\nTo the resultant blood platelet pellet was added a 15 mM tris.HCl buffer solution with EDTA (pH 7.4) to resuspend blood platelets therein and then one applied centrifugation at 2000×g over 15 minutes and the supernatant was removed. The resultant washed blood platelets were added to a 0.3 mM tris.HCl buffer solution with CaCl2 (pH 7.4) to resuspend blood platelets therein, whereby there was prepared a blood platelet suspension adjusted to five hundred thousand platelets/μl. To 2 ml of the blood platelet suspension were added 2 μl of a methanolic solution of each test compound and incubation was effected for 15 minutes. Then blood platelet adhesion was determined according to a glass bead method by using a timing blood suction apparatus for determining the blood platelet adhesion.\nThe number of blood platelets was counted by means of a blood platelet counter.\nInhibitory rate of blood platelet adhesion was calculated according to the following equation: [formula] A: Blood platelet number in the blood platelet suspension passed through a control column\nB: Blood platelet number in the blood platelet suspension passed through a bead-packing column"}, "[4]": {"tested_on": "cerebral cortex", "experiment": "Activity to increase topical cerebral blood flow, cerebral cortex (heat clearance method)", "type": "in vivo, rabbit (male New Zealand White)", "settings": "change in blood flow expressed in terms of voltage", "description": "as §1\n(§3) Physiol. Scand., 67, 1 (1966); \"Kokyu to Junkan\" (in Japanese), 15, 435 (1967); the Journal of the Pharmacological Society of Japan, 71, 709 (1975)]. Simultaneously, blood pressure in femoral artery was also determined. Preparation and administration of test compounds were carried out in the same manner as in the above item (6)."}, "[5]": {"tested_on": "candate nucleus", "experiment": "Activity to increase topical cerebral blood flow, candate nucleus (heat clearance method)", "type": "in vivo, rabbit (male New Zealand White)", "settings": "change in blood flow expressed in terms of voltage", "description": "as §1, §3"}, "[6]": {"tested_on": "carotid artery", "experiment": "Action on blood flow volume in carotid artery", "type": "in vivo, rabbit (male New Zealand White)", "description": "Male New Zealand White rabbits (body weight of 2.8 Kg to 3.5 Kg) were used and anesthetized with pentobarbital sodium. Blood flow volumes in the carotid artery and femoral artery were measured and recorded via a non-blood observing type of a probe for measuring blood flow volume. Also, blood pressure in femoral artery was simultaneously measured and recorded with measurement of blood flow.\nas §1"}, "[7]": {"tested_on": "Thoracic aorta", "experiment": "Calcium antagonistic activity (relaxation of thoracic aorta)", "type": "cell-based, rat (male Wistar strain)", "settings": "Rattus norvegicus, 10 mM CaCl2", "description": "Thoracic aorta was removed from male Wistar strain rats with a body weight of 350 g to 450 g and then spiral-shaped pieces of aorta were prepared therefrom. […] Thereafter, samples were further stabilized in Krebs-Henseleit solution containing no CaCl2 over 1 hour and then in a 80 mM KCl nutritive liquid wherein NaCl was exchanged with an equimolar KCl (depolarized liquid) over a further one hour. Then, samples were washed with the depolarized liquid and loaded with a static tension of 1.0 g. When CaCl2 was added to the nutritive liquid so as to reach a final concentration of 10 mM, tension was produced in samples and, after 15-20 minutes from the addition of CaCl2, the maximum tension was obtained. At this point, test compounds were applied and relaxing activity of test compounds was evaluated. Tension was determined in equal dimension.\nRelaxation rate was calculated according to the following equation: [formula] A: Maximum tension generated B: Generated tension retained after administration of test compound\nAll test compounds were given in the form of a solution in dimethyl sulfoxide at a dose of 0.1 ml, whereupon a final concentration of dimethyl sulfoxide itself was adjusted to 0.5 V/V %."}, "[8]": {"tested_on": "femoral artery", "experiment": "Blood pressure in femoral artery, coronary blood flow test", "type": "in vivo, dog (mongrel adult dog)", "description": "as §1, §2"}, "[9]": {"tested_on": "femoral artery", "experiment": "Blood pressure in femoral artery, topical cerebral blood flow test", "type": "in vivo, rabbit (male New Zealand White)", "description": "as §1, §3"}}, "data": [{"smiles": "CC(C)(C)CNc1nnc(-c2ccccc2)c2ccccc12", "note": "[Compound 1, 1-neopentylamino-4-phenylphthalazine]", "values": [{"measurement": "Blood flow volume in coronery artery, After administration", "setting": "[1]; 0.1 mg/Kg", "value": 28.8, "unit": "mL/min"}, {"measurement": "Blood flow volume in coronery artery, Before administration", "setting": "[1]; 0.1 mg/Kg", "value": 18.8, "unit": "mL/min"}, {"measurement": "Blood flow volume in coronery artery, Increase rate", "setting": "[1]; 0.1 mg/Kg", "value": 53.2, "unit": "%"}, {"measurement": "Blood flow volume in coronery artery, After administration", "setting": "[1]; 0.3 mg/Kg", "value": 37.5, "unit": "mL/min"}, {"measurement": "Blood flow volume in coronery artery, Before administration", "setting": "[1]; 0.3 mg/Kg", "value": 18.8, "unit": "mL/min"}, {"measurement": "Blood flow volume in coronery artery, Increase rate", "setting": "[1]; 0.3 mg/Kg", "value": 99.5, "unit": "%"}, {"measurement": "LD50", "setting": "[2]", "value": "> 8000", "unit": "mg/kg"}, {"measurement": "inhibition at 300 µM", "setting": "[3]; 3·10^-4 M", "value": 50.2, "unit": "%"}, {"measurement": "inhibition at 30 µM", "setting": "[3]; 3·10^-5 M", "value": 40.8, "unit": "%"}, {"measurement": "inhibition at 3 µM", "setting": "[3]; 3·10^-6 M", "value": 12.5, "unit": "%"}, {"measurement": "inhibition at 0.3 µM", "setting": "[3]; 3·10^-7 M", "value": 8.2, "unit": "%"}, {"measurement": "Increase in topical blood flow volume, Cerebral cortex", "setting": "[4]; 0.3 mg/Kg i.v.", "value": "1.03 ± 0.12 Δ μV"}, {"measurement": "Increase in topical blood flow volume, Cerebral cortex", "setting": "[4]; 1 mg/Kg i.v.", "value": "2.05 ± 0.29 Δ μV"}, {"measurement": "Increase in topical blood flow volume, Candate nucleus", "setting": "[5]; 0.3 mg/Kg i.v.", "value": "0.63 ± 0.08 Δ μV"}, {"measurement": "Increase in topical blood flow volume, Candate nucleus", "setting": "[5]; 1 mg/Kg i.v.", "value": "0.85 ± 0.25 Δ μV"}, {"measurement": "Blood flow volume in carotid artery, A: Before administration", "setting": "[6]; 0.01 mg/Kg i.v.", "value": 15.5, "unit": "mL/min"}, {"measurement": "Blood flow volume in carotid artery, B: After administration", "setting": "[6]; 0.01 mg/Kg i.v.", "value": 21.9, "unit": "mL/min"}, {"measurement": "Blood flow volume in carotid artery, C: Increase degree", "setting": "[6]; 0.01 mg/Kg i.v.", "value": 6.3, "unit": "mL/min"}, {"measurement": "Blood flow volume in carotid artery, D: Increase rate", "setting": "[6]; 0.01 mg/Kg i.v.", "value": 40.8, "unit": "%"}, {"measurement": "Blood flow volume in carotid artery, A: Before administration", "setting": "[6]; 0.05 mg/Kg i.v.", "value": 14.5, "unit": "mL/min"}, {"measurement": "Blood flow volume in carotid artery, B: After administration", "setting": "[6]; 0.05 mg/Kg i.v.", "value": 22.7, "unit": "mL/min"}, {"measurement": "Blood flow volume in carotid artery, C: Increase degree", "setting": "[6]; 0.05 mg/Kg i.v.", "value": 8.1, "unit": "mL/min"}, {"measurement": "Blood flow volume in carotid artery, D: Increase rate", "setting": "[6]; 0.05 mg/Kg i.v.", "value": 53.7, "unit": "%"}, {"measurement": "Blood flow volume in carotid artery, A: Before administration", "setting": "[6]; 0.1 mg/Kg i.v.", "value": 15.4, "unit": "mL/min"}, {"measurement": "Blood flow volume in carotid artery, B: After administration", "setting": "[6]; 0.1 mg/Kg i.v.", "value": 26.9, "unit": "mL/min"}, {"measurement": "Blood flow volume in carotid artery, C: Increase degree", "setting": "[6]; 0.1 mg/Kg i.v.", "value": 11.5, "unit": "mL/min"}, {"measurement": "Blood flow volume in carotid artery, D: Increase rate", "setting": "[6]; 0.1 mg/Kg i.v.", "value": 74.2, "unit": "%"}, {"measurement": "Blood flow volume in carotid artery, A: Before administration", "setting": "[6]; 0.5 mg/Kg i.v.", "value": 17.3, "unit": "mL/min"}, {"measurement": "Blood flow volume in carotid artery, B: After administration", "setting": "[6]; 0.5 mg/Kg i.v.", "value": 35.1, "unit": "mL/min"}, {"measurement": "Blood flow volume in carotid artery, C: Increase degree", "setting": "[6]; 0.5 mg/Kg i.v.", "value": 17.8, "unit": "mL/min"}, {"measurement": "Blood flow volume in carotid artery, D: Increase rate", "setting": "[6]; 0.5 mg/Kg i.v.", "value": 109.7, "unit": "%"}, {"measurement": "inhibition at 3 µM", "setting": "[7]; final concentration 3 μM", "value": 8.5, "unit": "%"}, {"measurement": "inhibition at 10 µM", "setting": "[7]; final concentration 10 μM", "value": 30, "unit": "%"}, {"measurement": "Lowering of blood pressure in femoral artery", "setting": "[8]; 0.1 mg/Kg", "value": 17.6, "unit": "%"}, {"measurement": "Lowering of blood pressure in femoral artery", "setting": "[8]; 0.3 mg/Kg", "value": 29.4, "unit": "%"}, {"measurement": "Lowering of blood pressure in femoral artery", "setting": "[9]; 0.3 mg/Kg i.v.", "value": "18.2 ± 0.98", "unit": "%"}, {"measurement": "Lowering of blood pressure in femoral artery", "setting": "[9]; 1 mg/Kg i.v.", "value": "30.8 ± 3.2", "unit": "%"}]}, {"smiles": "CCC(CC)Nc1nnc(-c2ccccc2)c2ccccc12", "note": "[Compound 2, 1-(1-ethylpropylamino)-4-phenylphthalazine]", "values": [{"measurement": "LD50", "setting": "[2]", "value": "> 8000", "unit": "mg/kg"}, {"measurement": "Blood flow volume in carotid artery, A: Before administration", "setting": "[6]; 0.01 mg/Kg i.v.", "value": 15.6, "unit": "mL/min"}, {"measurement": "Blood flow volume in carotid artery, B: After administration", "setting": "[6]; 0.01 mg/Kg i.v.", "value": 19.4, "unit": "mL/min"}, {"measurement": "Blood flow volume in carotid artery, C: Increase degree", "setting": "[6]; 0.01 mg/Kg i.v.", "value": 3.9, "unit": "mL/min"}, {"measurement": "Blood flow volume in carotid artery, D: Increase rate", "setting": "[6]; 0.01 mg/Kg i.v.", "value": 24.9, "unit": "%"}, {"measurement": "Blood flow volume in carotid artery, A: Before administration", "setting": "[6]; 0.05 mg/Kg i.v.", "value": 13.9, "unit": "mL/min"}, {"measurement": "Blood flow volume in carotid artery, B: After administration", "setting": "[6]; 0.05 mg/Kg i.v.", "value": 17.7, "unit": "mL/min"}, {"measurement": "Blood flow volume in carotid artery, C: Increase degree", "setting": "[6]; 0.05 mg/Kg i.v.", "value": 3.8, "unit": "mL/min"}, {"measurement": "Blood flow volume in carotid artery, D: Increase rate", "setting": "[6]; 0.05 mg/Kg i.v.", "value": 24.8, "unit": "%"}, {"measurement": "Blood flow volume in carotid artery, A: Before administration", "setting": "[6]; 0.1 mg/Kg i.v.", "value": 14.5, "unit": "mL/min"}, {"measurement": "Blood flow volume in carotid artery, B: After administration", "setting": "[6]; 0.1 mg/Kg i.v.", "value": 22.4, "unit": "mL/min"}, {"measurement": "Blood flow volume in carotid artery, C: Increase degree", "setting": "[6]; 0.1 mg/Kg i.v.", "value": 7.9, "unit": "mL/min"}, {"measurement": "Blood flow volume in carotid artery, D: Increase rate", "setting": "[6]; 0.1 mg/Kg i.v.", "value": 54.3, "unit": "%"}, {"measurement": "Blood flow volume in carotid artery, A: Before administration", "setting": "[6]; 0.5 mg/Kg i.v.", "value": 16.7, "unit": "mL/min"}, {"measurement": "Blood flow volume in carotid artery, B: After administration", "setting": "[6]; 0.5 mg/Kg i.v.", "value": 32.1, "unit": "mL/min"}, {"measurement": "Blood flow volume in carotid artery, C: Increase degree", "setting": "[6]; 0.5 mg/Kg i.v.", "value": 15.4, "unit": "mL/min"}, {"measurement": "Blood flow volume in carotid artery, D: Increase rate", "setting": "[6]; 0.5 mg/Kg i.v.", "value": 96.0, "unit": "%"}]}]}
